Data reported in US20080119463A1, “4-Anilino-3-quinolinecarbonitriles for the treatment of acute myelogenous leukemia (AML)” (Wyeth, priority 2006, published 2008).
Where two headings read alike, the source gives them in different places.

Assays:
[1] = test system: U937 cells; test: proliferation assay of human AML cell line U937 (Cell Titer Glo, 3 days); type: cell-based; details: 3 days growth, Cell Titer Glo luminescence, read-out: IC50 (μM) from proliferation assays of human AML cell lines
Protocol: (§1) These compounds were prepared according to previously published methods (Boschelli, D. H., et. al., J. Med. Chem., 44, 3965 (2001); Boschelli, D. H., et. al., J. Med. Chem., 44, 822 (2001); Boschelli, D. H., et. al., Bioorg. Med. Chem. Lett., 13, 3797 (2003); Boschelli, D. H., et. al., J. Med. Chem., 47, 1599 (2004); and Ye, F. et al., 221st National Meeting of the American Chemical Society, San Diego, Calif. (April, 2001)), hereby incorporated by reference. For this study, 1×10^2 to 1×10^3 cells were plated in 95 μl of growth medium in each well of a 96-well microtiter plate. Compounds were added in 5 μl of medium such that the final concentration of DMSO in the medium was 0.25%. Cells were allowed to grow in a cell culture incubator (37° C.) for 3 days, at which time 100 μl of Promega Cell Titer Glo agent was added. Luminescence (lum) was measured in an Envision microplate reader. Data were processed by first obtaining % inhibition (100−(lum+cpd/lum−cpd); cpd […]). The data were then analyzed with the LSW IC50 calculation model ligand-receptor binding/hyperbolic (y=Bmax/(1+(x/IC50)). The IC50 is the concentration of test compound needed to reduce the total amount of cell proliferation by 50%.
For relevant experiments described above, standard growth medium for a particular cell line was used. For example, the growth medium for U937 cells is: RPMI 1640 supplemented with glutamine, 10% fetal bovine serum, and 50 μg/ml of gentamicin.

[2] = test system: KG-1a cells; test: proliferation assay of human AML cell line KG-1a (Cell Titer Glo, 3 days); type: cell-based; details: 72 h, 3 days growth, Cell Titer Glo luminescence, read-out: IC50 (μM) from proliferation assays of human AML cell lines
Protocol: as §1
For relevant experiments described above, standard growth medium for a particular cell line was used. […]

IC50 ([1]; Homo sapiens, U-937, 72 h)	Compound	other results
2.4 µM	COc1cc(Nc2c(C#N)cnc3cc(-c4ccc(CN5CCN(C)CC5)cn4)ccc23)c(Cl)cc1Cl [4-(2,4-dichloro-5-methoxy-anilino)-7-{5-[(4-methyl-piperazin-1-yl)-methyl]-2-pyridinyl]-quinoline-3-carbonitrile]	
0.73 µM	COc1cc(Nc2c(C#N)cnc3cc(-c4ccc(CN5CCOCC5)cn4)ccc23)c(Cl)cc1Cl [4-(2,4-dichloro-5-methoxy-anilino)-7-{5-[(4-morpholinyl)-methyl]-2-pyridinyl]-quinoline-3-carbonitrile]	
1.2 µM	COc1cc(Nc2c(C#N)cnc3cc4cc(OCCN5CCOCC5)c(OC)cc4cc23)c(Cl)cc1C [4-(2-chloro-4 methyl-5-methoxy-anilino)-7-methoxy-8-[2-(4-morpholinyl)-ethoxy]-benzo[g]-quinoline-3-carbonitrile]	

Second part, the molecule before the results:

Compound	IC50 ([1]; Homo sapiens, U-937, 72 h)	other results
COc1cc(Nc2c(C#N)cnc3cc4cc(OCCN5CCOCC5)c(OC)cc4cc23)c(Cl)cc1Cl [4-(2,4-dichloro-5-methoxy-anilino)-7-methoxy-8-[2-(4-morpholinyl)-ethoxy]-benzo[g]-quinoline-3-carbonitrile]	5.1 µM	
COc1cc2cc3c(Nc4cc(OC)c(OC)c(OC)c4)c(C#N)cnc3cc2cc1OCCN1CCOCC1 [4-(3,4,5-methoxy-anilino)-7-methoxy-8-[2-(4-morpholinyl)-ethoxy]-benzo[g]-quinoline-3-carbonitrile]		IC50 [1]: 2.1 µM
COc1cc(Nc2c(C#N)cnc3cc(OCCCN4CCN(C)CC4)c(OC)cc23)c(Cl)cc1Cl [4-[(2,4-dichloro-5-methoxy-phenyl)amino]-6-methoxy-7-[3-(4-methyl-piperazin-1-yl)-propoxy]-quinoline-3-carbonitrile]		IC50 [2]: 1.11 µM
COc1cc(Nc2c(C#N)cnc3cc(-c4coc(CN5CCN(C)CC5)c4)c(OC)cc23)c(Cl)cc1Cl [4-[(2,4-dichloro-5-methoxy-phenyl)amino]-6-methoxy-7-{5-[(4-methyl-piperazin-1-yl)methyl]-3-furyl}-quinoline-3-carbonitrile]		IC50 [2]: 0.78 µM
